Data as given in patent publication US8067424B2, “Selective inhibitors for cyclin-dependent kinases” (Emory University, priority 2007, dated 2011).
Read-outs that look alike come from different tables or passages of the source.

Assays:
Assay type in all cases: biochemical
PKBα = PKBα (Homo sapiens, UniProt P31749, S473D); assay: Kinase screen: APH-PKBa-S473D assay
Protocol: (§1) Generally, the same procedure was used for all assays. Since the total assay volume was 25.5 microliters, 0.5 microliters of inhibitors at 51× assay concentration were added to the plates before any other addition.
(§2) The basic procedure was to add 0.5 microliters inhibitor/control in DMSO to plate. Fifteen microliters of enzyme/substrate/buffer mix were added and incubated for 5 min. Ten microliters MgATP at the relevant concentration were added and incubated for 30 min. The assay was stopped by adding 5 microliters of 3% orthophosphoric acid. The assay was transferred to a p81 filter plate and read in a scintillation counter of 30 sec/well. Note that this assay procedure was not followed for MKK1, which instead involved a two-step assay, and PKC alpha, which required the addition of lipid vesicles.
APH-PKBa-S473D assay: APH-PKBa-S473D (5-20 mU diluted in 50 mM Tris pH 7.5, 0.1 mM EGTA, 0.1% b-mercaptoethanol, 1 mg/ml BSA) was assayed against a modified Crosstide peptide […] (SEQ ID NO: 4) in a final volume of 25.5 μl containing 50 mM Tris pH 7.5, 0.05% b-mercaptoethanol, 30 μM substrate peptide, 10 mM magnesium acetate and 0.005 mM [33P-g-ATP] (50-1000 cpm/pmole) and incubated for 30 min at room temperature. Assays were stopped by addition of 5 μl of 0.5 M (3%) orthophosphoric acid and then harvested onto P81 Unifilter plates with a wash buffer of 50 mM orthophosphoric acid.

p38γ MAPK = target: T1, p38γ MAPK (Homo sapiens, UniProt P53778); assay: Kinase screen: SAPK 3/p38g assay
T1 sequence (P53778 1-367): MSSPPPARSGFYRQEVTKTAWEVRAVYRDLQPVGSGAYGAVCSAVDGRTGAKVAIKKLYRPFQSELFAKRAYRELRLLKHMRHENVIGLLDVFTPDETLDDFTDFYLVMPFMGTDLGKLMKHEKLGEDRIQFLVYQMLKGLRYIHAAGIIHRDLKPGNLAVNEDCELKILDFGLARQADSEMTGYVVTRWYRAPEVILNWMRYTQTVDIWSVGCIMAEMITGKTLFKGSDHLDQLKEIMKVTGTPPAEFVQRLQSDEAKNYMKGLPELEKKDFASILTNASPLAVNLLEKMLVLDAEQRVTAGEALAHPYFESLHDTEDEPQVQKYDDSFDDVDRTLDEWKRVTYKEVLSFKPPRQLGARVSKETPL
Protocol: as §1, §2
SAPK 3/p38g assay: SAPK 3/p38g (5-20 mU diluted in 50 mM Tris pH 7.5, 0.1 mM EGTA, 0.1 mM Na3VO4, 0.1% b-mercaptoethanol, 1 mg/ml BSA) was assayed against MBP in a final volume of 25.5 μl containing 25 mM Tris pH 7.5, 0.1 mM EGTA, 0.33 mg/ml MBP, 10 mM magnesium acetate and 0.005 mM [33P-g-ATP] (50-1000 cpm/pmole) and incubated for 30 min at room temperature. Assays were stopped by addition of 5 μl of 0.5 M (3%) orthophosphoric acid and then harvested onto P81 Unifilter plates with a wash buffer of 50 mM orthophosphoric acid.

PRAK = target: T2, PRAK (Homo sapiens, UniProt Q8IW41); assay: Kinase screen: PRAK assay
T2 sequence (Q8IW41 1-473): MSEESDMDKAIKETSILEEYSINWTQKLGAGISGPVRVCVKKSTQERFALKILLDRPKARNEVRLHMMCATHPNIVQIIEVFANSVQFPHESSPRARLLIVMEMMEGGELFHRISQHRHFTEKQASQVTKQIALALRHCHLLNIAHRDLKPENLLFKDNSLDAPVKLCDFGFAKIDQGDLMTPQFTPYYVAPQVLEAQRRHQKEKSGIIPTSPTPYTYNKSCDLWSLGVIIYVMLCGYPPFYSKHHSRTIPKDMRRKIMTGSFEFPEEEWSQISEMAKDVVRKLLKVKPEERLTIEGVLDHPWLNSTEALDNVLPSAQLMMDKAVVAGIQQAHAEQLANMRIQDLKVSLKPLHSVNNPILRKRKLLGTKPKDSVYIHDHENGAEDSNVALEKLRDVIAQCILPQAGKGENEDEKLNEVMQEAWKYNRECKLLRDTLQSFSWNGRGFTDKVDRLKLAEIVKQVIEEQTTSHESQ
Protocol: as §1, §2
(50-1000 cpm/pmole) and incubated for 30 min at room temperature. Assays were stopped by addition of 5 μl of 0.5 M (3%) orthophosphoric acid and then harvested onto P81 Unifilter plates with a wash buffer of 50 mM orthophosphoric acid.

IRR = IRR (Homo sapiens, UniProt P14616); assay: Kinase screen: IRR assay; conditions: 10 micromolar compound; for remaining activity at 10 µM: read-out: mean activity remaining (as a percentage of the original activity), IRR
Protocol: as §1, §2
IRR assay: 5-20 mU of IRR (diluted in 50 mM Hepes (pH 7.5), 0.1 mM EGTA) was assayed against MBP in a final volume of 25.5 μl containing 50 mM Hepes (pH 7.5), 0.1 mM EGTA, 0.33 mg/ml MBP, 10 mM magnesium acetate and 0.005 mM [33P-g-ATP](500-1000 cpm/pmole) and incubated for 30 mins at room temperature. Assays were stopped by addition of 5 μl of 0.5M (3%) orthophosphoric acid. Assays were harvested onto P81 Unifilter plates using a wash buffer of 50 mM orthophosphoric acid.

MNK1 = MNK1 (Homo sapiens, UniProt Q9BUB5); assay: Kinase screen: MNK1 assay
Protocol: as §1, §2
MNK1 assay: 5-20 mU of MNK1 (diluted in 50 mM Tris (pH 7.5), 0.1 mM EGTA, 1 mg/ml BSA, 0.1%, b-Mercaptoethanol) was assayed against substrate peptide (eIF4E) in a final volume of 25.5 μl containing 50 mM Tris (pH 7.5), 0.1 mM EGTA, 0.1%, b-Mercaptoethanol, 0.5 mg/ml substrate peptide, 10 mM magnesium acetate and 0.05 mM [33P-g-ATP](500-1000 cpm/pmole) and incubated for 30 mins at room temperature. Assays were stopped by addition of 5 μl of 0.5M (3%) orthophosphoric acid. Assays were harvested onto P81 Unifilter plates using a wash buffer of 50 mM orthophosphoric acid.

[1] = 0.5 h, 10 micromolar compound, read-out: mean activity remaining (as a percentage of the original activity), PKBa
[2] = 10 micromolar compound, read-out: mean activity remaining (as a percentage of the original activity), p38g MAPK
[3] = 10 micromolar compound, read-out: mean activity remaining (as a percentage of the original activity), PRAK
[4] = 10 micromolar compound, read-out: mean activity remaining (as a percentage of the original activity), MNK1

Chain of PKBα (P31749 118-480 S473D limits assumed, species assumed): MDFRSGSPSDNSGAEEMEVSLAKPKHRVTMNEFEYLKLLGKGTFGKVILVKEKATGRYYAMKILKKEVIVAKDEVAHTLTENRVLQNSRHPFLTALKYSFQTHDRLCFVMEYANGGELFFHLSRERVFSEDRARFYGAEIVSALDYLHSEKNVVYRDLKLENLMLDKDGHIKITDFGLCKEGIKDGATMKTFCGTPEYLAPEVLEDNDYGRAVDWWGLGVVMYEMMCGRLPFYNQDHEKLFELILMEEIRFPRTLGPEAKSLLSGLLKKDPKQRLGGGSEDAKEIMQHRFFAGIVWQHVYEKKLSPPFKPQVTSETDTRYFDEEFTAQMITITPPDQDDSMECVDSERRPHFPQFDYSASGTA
Chain of IRR (P14616 27-1297, species assumed): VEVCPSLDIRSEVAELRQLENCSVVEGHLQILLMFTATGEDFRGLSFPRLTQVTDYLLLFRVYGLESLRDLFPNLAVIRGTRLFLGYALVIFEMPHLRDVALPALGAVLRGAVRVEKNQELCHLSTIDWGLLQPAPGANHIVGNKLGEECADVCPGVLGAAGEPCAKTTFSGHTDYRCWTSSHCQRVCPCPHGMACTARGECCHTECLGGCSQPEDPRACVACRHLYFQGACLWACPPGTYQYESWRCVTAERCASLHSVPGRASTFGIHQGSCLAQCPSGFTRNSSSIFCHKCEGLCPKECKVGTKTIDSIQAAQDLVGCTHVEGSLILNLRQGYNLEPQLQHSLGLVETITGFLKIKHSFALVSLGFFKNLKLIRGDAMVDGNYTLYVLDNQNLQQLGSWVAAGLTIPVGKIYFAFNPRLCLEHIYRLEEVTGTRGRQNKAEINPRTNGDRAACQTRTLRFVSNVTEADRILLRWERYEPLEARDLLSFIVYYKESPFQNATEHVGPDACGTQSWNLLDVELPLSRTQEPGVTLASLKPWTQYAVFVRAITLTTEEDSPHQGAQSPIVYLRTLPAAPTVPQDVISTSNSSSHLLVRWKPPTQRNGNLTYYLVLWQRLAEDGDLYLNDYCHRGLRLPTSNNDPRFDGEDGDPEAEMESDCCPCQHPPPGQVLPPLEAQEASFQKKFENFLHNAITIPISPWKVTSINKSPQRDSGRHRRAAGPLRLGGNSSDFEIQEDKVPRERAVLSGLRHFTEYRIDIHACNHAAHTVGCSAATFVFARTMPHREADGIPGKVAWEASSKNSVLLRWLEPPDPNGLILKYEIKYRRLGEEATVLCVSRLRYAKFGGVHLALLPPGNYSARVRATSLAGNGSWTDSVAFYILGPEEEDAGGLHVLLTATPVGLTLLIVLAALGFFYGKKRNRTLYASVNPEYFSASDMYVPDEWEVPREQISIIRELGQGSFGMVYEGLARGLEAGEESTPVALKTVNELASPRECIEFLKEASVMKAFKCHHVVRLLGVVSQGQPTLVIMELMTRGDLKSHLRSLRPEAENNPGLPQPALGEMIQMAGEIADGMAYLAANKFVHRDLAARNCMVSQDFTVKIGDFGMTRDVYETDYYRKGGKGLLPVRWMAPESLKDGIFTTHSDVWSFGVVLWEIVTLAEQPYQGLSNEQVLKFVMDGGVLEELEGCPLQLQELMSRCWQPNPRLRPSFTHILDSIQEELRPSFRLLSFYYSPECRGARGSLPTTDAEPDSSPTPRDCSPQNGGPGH
Chain of MNK1 (Q9BUB5 whole entry, species assumed): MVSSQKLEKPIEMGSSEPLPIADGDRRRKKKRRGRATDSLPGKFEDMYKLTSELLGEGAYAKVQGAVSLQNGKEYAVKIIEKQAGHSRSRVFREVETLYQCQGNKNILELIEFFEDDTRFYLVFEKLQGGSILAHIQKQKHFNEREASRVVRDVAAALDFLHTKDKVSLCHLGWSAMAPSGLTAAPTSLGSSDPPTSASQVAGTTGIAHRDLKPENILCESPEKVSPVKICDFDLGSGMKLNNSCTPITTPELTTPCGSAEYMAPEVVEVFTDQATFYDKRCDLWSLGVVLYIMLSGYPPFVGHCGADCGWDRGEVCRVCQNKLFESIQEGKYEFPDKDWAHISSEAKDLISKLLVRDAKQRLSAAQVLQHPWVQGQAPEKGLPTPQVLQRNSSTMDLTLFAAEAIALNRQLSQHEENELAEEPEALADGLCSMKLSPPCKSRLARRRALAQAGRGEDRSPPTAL

SMILES	remaining activity at 10 µM (PKBα; [1])	remaining activity at 10 µM (p38γ MAPK; [2])	remaining activity at 10 µM (PRAK; [3])	remaining activity at 10 µM (IRR)	remaining activity at 10 µM (MNK1; [4])	further results
CC(C)c1cnn2c(NCc3ccccc3F)cc(NCCCCCN)nc12 [ICEC-0232]						mean activity remaining (as a percentage of the original activity), PKBa (PKBα; 10 micromolar compound): 75%; mean activity remaining (as a percentage of the original activity), p38g MAPK (p38γ MAPK; 10 micromolar compound): 91%; mean activity remaining (as a percentage of the original activity), PRAK (PRAK; 10 micromolar compound): 97%; mean activity remaining (as a percentage of the original activity), IRR (IRR): 29%; mean activity remaining (as a percentage of the original activity), MNK1 (MNK1; 10 micromolar compound): 97%
CC(C)c1cnn2c(NCc3ccccc3)cc(NCCCCCCCN)nc12 [BS-181]						remaining activity at 10 µM (PKBα; PKBα, 10 μM, read-out: Mean Remaining Enzyme Activity (%)): 82%; remaining activity at 10 µM (p38γ MAPK; p38γ MAPK, 10 μM, read-out: Mean Remaining Enzyme Activity (%)): 108%; remaining activity at 10 µM (PRAK; PRAK, 10 μM, read-out: Mean Remaining Enzyme Activity (%)): 115%; remaining activity at 10 µM (MNK1; MNK1, 10 μM, read-out: Mean Remaining Enzyme Activity (%)): 105%
CC[C@H](CO)Nc1cc(NCc2ccccc2)n2ncc(C(C)C)c2n1 [ICEC0067]	109%	82%	94%	23%	86%	
C=C[C@H](CO)Nc1cc(NCc2ccccc2)n2ncc(C(C)C)c2n1 [ICEC0065]	116%	108%	86%	24%	90%	
CC(C)c1cnn2c(NCc3ccccc3)cc(N[C@@H](CO)[C@H](O)CO)nc12 [ICEC0318, (3S)-3-(7-(Benzylamino)-3-isopropylpyrazolo[1,5-a]pyrimidin-5-ylamino)butane-1,2,4-triol]	103%	112%	97%	32%	98%	
